The values that follow come from patent US6908591B2, “Methods for sterilizing biological materials by irradiation over a temperature gradient” (Clearant, Inc., priority 2002, dated 2005).

Data set [1] deals with ACL collagen. Description: Turbidity assay of collagen isolated from ACL irradiated in alcohols (Example 11). It counts as biochemical. To be noted: even at 0.5 mg/ml. As for the experimental part: 7. Turbidity assay was performed for these collagens using at [1 mg/ml].
A turbidity assay was performed for the collagen isolated from these ACL samples. Correlation was found between the ACL collagen before and after irradiation.

In data set [2] the test system is ACL collagen. Description: SDS-PAGE densitometry of purified pepsin-digested collagen, ACL in alcohols irradiated at -80° C. to 50 kGy (Example 11). The following applies: 1.53 kGy/hr. The procedure: This experiment was to determine whether alcohols can protect ACL tissue samples from γ-irradiation at −80° C. with 50 kGy. 1. […] 2. These samples were then incubated with different alcohols for 2 hr in a shaking incubator at 37° C. 3. After 2 hr incubation, these ACL tubes were decanted and fresh solutions were added to each ACL containing tubes and incubated overnight at −80° C. 4. These samples were irradiated with 0 and 50 kGy at 1.53 kGy/hr at NIST. 6. ACL were digested with pepsin and collagen purified by precipitating with salt. 8. Ran 10 μg of each purified pepsin-digested collages on 4-12% gel and quantified both alpha 1 and alpha 2 chains.

How the values of data set [3] were obtained: • Tissue—Porcine Pulmonary Valve (PV) Heart valves were harvested prior to use and stored. • Tissue Preparation Reagents— • Polypropylene Glycol 400.
An additional 1 ml PPG was added and further water bath sonicated.
The 0.5M solution was soluble after a 20-30 minute water bath sonication.

In data set [4] the test system is type I collagen. In words: SDS-PAGE of type I collagen irradiated to 45 kGy with stabilizers (Example 17). To be noted: gamma irradiation at -20° C. As for the experimental part: In this experiment, type I collagen at −20° C., −80° C. or freeze-dried at 4° C. were irradiated with gamma radiation to a total dose of 45 kGy in the presence of various stabilizers.
• 1M thiourea (Sigma T8656) in water; • 0.5M coumarin (Sigma CC4261) in ethanol; • 0.5M 0-coumaric acid (Sigma C4400) in ethanol; • 0.5M curcumin (Sigma C1386) in ethanol; • 1M L-cysteine (Sigma C6852) in water; • 1M 1,3-dimethyl-2-thiourea (Aldrich 534-13-4) in water; • 1M 2-mercaptoethylamine (Sigma M6500) in water; and • 1M 1,3-dimethylurea (Sigma D6254) in water. Phosphate buffer solution of 40 mM sodium phosphate and 100 mM NaCl; pH=7.66. Methods: The following samples were prepared to a final volume of 0.5 ml: • 1 mg/ml collagen in 5 mM acetic acid (control); • 1 mg/ml collagen+0.1 M coumaric acid; • 1 mg/ml collagen+5 mM curcumin; • 1 mg/ml collagen+0.1M L-cysteine; • 1 mg/ml collagen+0.1M 1,3-dimethyl-2-thiourea; • 1 mg/ml collagen+0.1M thiourea; • 1 mg/ml collagen+0.1M 2-mercaptoethylamine; and • 1 mg/ml collagen+0.1M 1,3-dimethylurea. The samples were irradiated as follows: • freeze-dried; temperature:4.7° C.; dose rate: 1.656 kGy/hr; total dose:45 kGy; • temperature:−20.5° C.; dose rate:1.537 kGy/hr; total does:45 kGy; and • […]; dose rate:1.530-1.528 kGy/hr;45 kGy. Following irradiation, the samples were analyzed by SDS-PAGE. Additionally, the samples were diluted 1:2 with water to give collagen concentrations of 0.5 mg/ml and a turbidity assay was performed to detect collagen fibril formation. Collagen fibril formation was initiated by adding 100 μl of phosphate buffer solution. The assay was done in triplicate using a microtiter plate reader at 340 nm wavelength.

Data set [5] has as its system type I collagen. Description: Turbidity assay of collagen fibril formation after irradiation (Example 17). It counts as biochemical. To be noted: 45 kGy. The procedure: Phosphate buffer solution of 40 mM sodium phosphate and 100 mM NaCl; pH=7.66. Methods: […] Following irradiation, the samples were analyzed by SDS-PAGE. Additionally, the samples were diluted 1:2 with water to give collagen concentrations of 0.5 mg/ml and a turbidity assay was performed to detect collagen fibril formation. Collagen fibril formation was initiated by adding 100 μl of phosphate buffer solution. The assay was done in triplicate using a microtiter plate reader at 340 nm wavelength.

For data set [6], the system named is porcine ACL extractable proteins. In words: Guanidine HCl extracts of freeze dried ACL irradiated to 45 kGy: SDS-PAGE, BCA assay, densitometry (Example 6). To be noted: 45 kGy versus 0 kGy control. As for the experimental part:
Guanidine HCL extraction was done with 4 M GuHCl in 0.5 NaOAC pH 5.8 and 5 mM EDTA, 10 mM NEM, 5 mM Benzamidine and 1 mM PMSF to a final concentration of […] of extraction buffer. The samples were incubated at 4° C. on a nutator for 2 days.
A BCA assay was performed on the dialysates of the PPG+cocktail guanidine extracted samples to determine the total protein concentration in the samples.
Using BCA and SDS-PAGE on the PPG+Cocktail sample, guanidine extracts were evaluated based on SDS-PAGE of equal protein load. The protein concentrations were as follows:
Densitometry was performed on two different protein bands, as follows: […]

The next data set concerns porcine AV heart valves. In words: HPLC analysis of frozen AV heart valve cusps irradiated to 30 kGy at -20° C. (Example 3). To be noted: 1.584 kGy/hr. As for the experimental part:
In this experiment, frozen porcine AV heart valves soaked in various solvents were gamma irradiated to a total dose of 30 kGy at 1.584 kGy/hr at −20° C. 5. […] 6. Incubated tubes at 4° C. with nutating for ˜46 hours. 9. Frozen samples were then irradiated at −20° C. at a rate of 1.584 kGy/hr to a total dose of 30 kGy.

The test system of a further data set is collagen. Description: Turbidity assay of liquid and gel collagen irradiated on dry ice (Example 18). It counts as biochemical. To be noted: frozen on dry ice, 48.73 to 53.38 kGy. As for the experimental part:
The samples were gamma irradiated at […] (frozen on dry ice) at dose rates of […] to a total dose of 48.73 to 53.38 kGy. The irradiated samples were analyzed by SDS-PAGE. Additionally, the samples were diluted 1:2 with water to give collagen concentrations of 0.5 mg/ml and a turbidity assay was performed to detect collagen fibril formation. Collagen fibril formation was initiated by adding 100 μl of phosphate buffer solution. The assay was done in triplicate using a microtiter plate reader at 340 nm wavelength.

Data set [7] concerns ACL collagen. In words: SDS-PAGE of purified pepsin-digested collagen, ACL in high salt, low salt, neutral or low pH irradiated at -80° C. to 50 kGy (Example 10). As for the experimental part: This experiment was to determine whether high salt, low salt, neutral pH and low pH treated ACL will help to deliver stabilizers into ACL tissue to protect it from γ-irradiation at -80° C. with 50 kGy. 1. Prepared stock solution 2M sodium ascorbate (Spectrum […], Lot#QP0839) in water. Samples were prepared with the following: • a) DPBS • b) DPBS/200 mM sodium ascorbate • c) 0.5N HOAc • d) 0.5N HOAc/200 mM sodium ascorbate • e) 20 mM sodium phosphate pH 7.6 • f) 20 mM sodium phosphate pH 7.6/200 mM sodium ascorbate • g) 20 mM sodium phosphate pH 7.6/1M NaCl • h) 20 mM sodium phosphate pH 7.6/1M NaCl/200 mM sodium ascorbate. 2. These samples were irradiated with 0 and 50 kGy at 1.53 kGy/hr at NIST. 4. ACL were digested with pepsin and collagen purified by precipitating with salt.

The test system of data set [8] is Porcine Pulmonary Valve (PV) Heart valves. Description: HPLC and gel analysis of heart valve cusps gamma irradiated to 30 kGy at -20° C. (Example 1). To be noted: 1.584 kGy/hr. The procedure:
In this experiment, porcine heart valves were gamma irradiated in the presence of polypropylene glycol 400 (PPG400) and, optionally, a scavenger, to a total dose of 30 kGy (1.584 kGy/hr at −20° C.).
5. 1.2 ml of PPG were added to two tubes (one of these tubes was designated 0 kGy and the other tube was designated 30 kGy): • 1.2 ml of 125 mM Trolox C in PPG were added to another two tubes • 1.2 ml of SCb stabilizer mixture—comprising of 1.5 ml 125 mM Trolox C, 300 μl 1 M Lipoic Acid, 600 μl 0.5 M Coumaric Acid and 600 μl 0.5 M n-Propyl Gallate (Final concentrations: 62.5 mM, 100 mM, 100 mM and 100 mM respectively) were added to the final two tubes.
6. Tubes were incubated at 4° C., with rocking for about 60 hours.
Samples were irradiated at a rate of 1.584 kGy/hr at −20° C. to a total dose of 30 kGy.
3. Samples were weighed, transferred to hydrolysis vials and 6 N HCl added at a volume of 20 mg tissue/ml HCl:
4. Samples were hydrolyzed at 110° C. for approximately 23 hours.

In the case of `CCO` [ethanol], the “fibril formation in turbidity assay” value in the data set with ACL collagen [1] was “could not form fibrils”. Moreover, the “yield for 50 kGy ACL collagen based on the densitometry of alpha 1 and 2 chains” value in the data set with ACL collagen [2] is given as 77%.
For `CCCOC(=O)c1cc(O)c(O)c(O)c1` [n-Propyl Gallate], the “solubility of the stock solution in PPG” value in data set [3] was “soluble”.
With `N[C@@H](CS)C(=O)O` [cysteine, L-cysteine], the “protective effect on collagen” value in the data set on type I collagen [4] was “less than that observed with thiourea and 1,3-dimethyl-2-thiourea”. Also, in the data set on type I collagen [5] (irradiated at -80° C.), the “fibril formation after irradiation (turbidity assay)” value (shortened to “fibril formation after irradiation”) is listed as “could form fibrils after irradiation”.
`OC[C@H]1O[C@H](O[C@H]2O[C@H](CO)[C@@H](O)[C@H](O)[C@H]2O)[C@H](O)[C@@H](O)[C@@H]1O` [Trehalose, D(+)-trehalose]: the “protection of guanidine extractable proteins by SDS-PAGE” value (“protection … by SDS-PAGE” below) in data set [6] is listed as “least protection”.
In the case of `CNC(=S)NC` [1,3-dimethyl-2-thiourea], the “fibril formation after irradiation” value with type I collagen [5] and in the data set with type I collagen [5] (irradiated at -80° C.) was “could form fibrils after irradiation” in each case.
For the molecule `C[S+](C)[O-]` [DMSO, dimethyl sulfoxide], the “HPLC analysis, preservation of peaks after irradiation” value is recorded as “reproduced these peaks more faithfully” in the data set on porcine AV heart valves (listed as 20% DMSO) and “slightly more effective” in the data set with porcine AV heart valves (listed as 50% DMSO).
On to `COc1cc(/C=C/C(=O)CC(=O)/C=C/c2ccc(O)c(OC)c2)ccc1O` [curcumin], for which the “protective effect on collagen” value in the data set with type I collagen [4] is “less than that observed with thiourea and 1,3-dimethyl-2-thiourea”.
Turning to `Cc1c(C)c2c(c(C)c1O)CCC(C)(C(=O)O)O2` (stereo not shown) [Trolox C, 6-hydroxy-2,5,7,8-tetramethylchroma-2 carboxylic acid], in [3], the “solubility of the stock solution in PPG” value is “not soluble” and the “soluble at (in PPG)” value is 125 mM.
As to `CC(O)C(C)O` (stereo not shown) [butanediol, 2,3-butanediol], in the data set on ACL collagen [2], the “yield for 50 kGy ACL collagen based on the densitometry of alpha 1 and 2 chains” value amounted to 88%.
Regarding `CC(O)CO` (stereo not shown) [propanediol, 1,2-propanediol], the “fibril formation in turbidity assay” value in the data set on ACL collagen [1] is reported as “could not form fibrils”.
Regarding `O=C1O[C@H]([C@@H](O)CO)C([O-])=C1O.[Na+]` [ascorbate, sodium ascorbate], the “protection … by SDS-PAGE” value in data set [6] was “most promising results”. Moreover, the “protection of gel or liquid collagen (turbidity assay)” value in the data set with collagen was “most effective”. Further, the “yield of purified pepsin-digested collagen at 50 kGy” value was 75% with ACL collagen [7] (with ascorbate (200 mM) in 20 mM sodium phosphate pH 7.6 without salt, -80° C.); 83% in the data set with ACL collagen [7] (with ascorbate (200 mM) in 0.5N HOAc pH 3.4, -80° C.); 40% with ACL collagen [7] (with ascorbate (200 mM) in high salt (20 mM sodium phosphate pH 7.6/1M NaCl), -80° C.).
On to `N[C@@H](Cc1c[nH]cn1)C(=O)O` [histidine, L-histidine], for which the “protection … by SDS-PAGE” value in [6] was “most promising results”.
Consider `CC(=O)O` [0.5N HOAc, acetic acid], for which, in the data set with ACL collagen [7] (without ascorbate, -80° C.), the “yield of purified pepsin-digested collagen at 50 kGy” value is 73%.
In the case of `C[N+](C)(C)[C@@H](Cc1c[nH]c(=S)[nH]1)C(=O)[O-]` [ergothionine], the “protection … by SDS-PAGE” value in data set [6] is recorded as “good protection of proteins in the lower ⅔ of the gel”.
As for `NCCS` [2-mercaptoethylamine], the “protective effect on collagen” value in the data set on type I collagen [4] is “less than that observed with thiourea and 1,3-dimethyl-2-thiourea”. In addition, the “fibril formation after irradiation” value in the data set with type I collagen [5] (irradiated at -80° C.) is given as “could form fibrils after irradiation”.
In the case of `CNC(=O)NC` [1,2-dimethylurea, 1,3-dimethylurea], the “protective effect on collagen” value with type I collagen [4] was “less than that observed with thiourea and 1,3-dimethyl-2-thiourea”.
polypropylene glycol 400 [PPG 400]: in data set [8], the “HPLC analysis, irradiated versus not irradiated heart valve” value is on record as “nearly identical”.
Turning to `O=C(O)/C=C/c1ccc(O)cc1` [Coumaric Acid], the “solubility of the stock solution in PPG” value in data set [3] was “not 100% soluble”.
